Calls of active or inactive are those of the source. No cut-off for these calls is given here.

The subject of data set [1] is PMN. As to the kind of experiment: Immunomodulatory activity in Homo sapiens (human) PMN cells assessed as increase in NO release at 1 uM after 1 hr by ELISA plate reader analysis. It is filed as functional, cell-based.
Data set [2] deals with PMN. As to the kind of experiment: Immunomodulatory activity in Homo sapiens (human) PMN cells assessed as increase in reactive oxygen species formation at 1 uM at 0 min after luminal addition by chemiluminescence assay. It is filed as functional, cell-based.
Data set [3] deals with PMN. As to the kind of experiment: Immunomodulatory activity in Homo sapiens (human) PMN cells assessed as increase in reactive oxygen species formation at 1 uM at 40 min after luminal addition by chemiluminescence assay. The data set is classed as functional, cell-based.
Data set [4] has as its system PMN. Nature of the data set: Immunomodulatory activity in Homo sapiens (human) PMN cells assessed as increase in superoxide species generation at 1 uM after 2 hr by NBT assay. The data set is classed as functional, cell-based.
Data set [5] can be described thus: Cytotoxicity against Homo sapiens (human) PMN cells assessed as cell viability at 0.001 ug/ml by trypan blue dye exclusion test (reference value: 83.94 +/-5.05%). The data set is classed as cell-based. The conditions noted are these: read-out: Activity.
Data set [6] is described as follows: Immunomodulatory activity in Homo sapiens (human) PMN cells assessed as induction of phagocytosis using Candida albicans as an infectious organism at 0.0075 ug/ml after 1 hr by Giemsa staining based microscopic analysis (reference value: 27.33 +/-2.52%). The data set is classed as functional.
The subject of data set [7] is PMN. Nature of the data set: Immunomodulatory activity in Homo sapiens (human) PMN cells assessed as increase in reactive oxygen species formation at 0.001 ug/ml at 0 min after luminal addition by chemiluminescence assay. The data set is classed as functional, cell-based.
The subject of data set [8] is PMN. As to the kind of experiment: Immunomodulatory activity in Homo sapiens (human) PMN cells assessed as increase in superoxide species generation at 0.001 to 0.0075 ug/ml after 2 hr by NBT assay. It is filed as functional, cell-based.
Data set [9] deals with PMN. As to the kind of experiment: Immunomodulatory activity in Homo sapiens (human) PMN cells assessed as increase in phagocytic index using Candida albicans as an infectious organism at 0.005 ug/ml after 1 hr by Giemsa staining based microscopic analysis. The data set is classed as functional, cell-based.
Data set [10] in a line: Cytotoxicity against Homo sapiens (human) PMN cells assessed as cell viability at 0.005 ug/ml by trypan blue dye exclusion test (reference value: 83.94 +/-5.05%). The data set is classed as cell-based. The conditions noted are these: read-out: Activity.
A short description of data set [11]: Immunomodulatory activity in Homo sapiens (human) PMN cells assessed as induction of phagocytosis using Candida albicans as an infectious organism at 1 uM after 1 hr by Giemsa staining based microscopic analysis (reference value: 27.33 +/-2.52%). The data set is classed as functional.
Data set [12] is described as follows: Immunomodulatory activity in Homo sapiens (human) PMN cells assessed as induction of phagocytosis using Candida albicans as an infectious organism at 0.001 ug/ml after 1 hr by Giemsa staining based microscopic analysis (reference value: 27.33 +/-2.52%). It is filed as functional.
Data set [13] can be described thus: Cytotoxicity against Homo sapiens (human) PMN cells assessed as cell viability at 0.0075 ug/ml by trypan blue dye exclusion test (reference value: 83.94 +/-5.05%). The settings on record: read-out: Activity. The data set is classed as cell-based.
Data set [14] relates to PMN. As to the kind of experiment: Immunomodulatory activity in Homo sapiens (human) PMN cells assessed as increase in NO release at 0.001 to 0.0075 ug/ml after 1 hr by ELISA plate reader analysis. The data set is classed as functional, cell-based.
The subject of data set [15] is PMN. As to the kind of experiment: Immunomodulatory activity in Homo sapiens (human) PMN cells assessed as increase in reactive oxygen species formation at 0.001 ug/ml at 40 min after luminal addition by chemiluminescence assay. It is filed as functional, cell-based.
A short description of data set [16]: Immunomodulatory activity in Homo sapiens (human) PMN cells assessed as induction of phagocytosis using Candida albicans as an infectious organism at 0.005 ug/ml after 1 hr by Giemsa staining based microscopic analysis (reference value: 27.33 +/-2.52%). The data set is classed as functional.
For data set [17], the system named is PMN. As to the kind of experiment: Immunomodulatory activity in Homo sapiens (human) PMN cells assessed as increase in phagocytic index using Candida albicans as an infectious organism after 1 hr by Giemsa staining based microscopic analysis. It is filed as functional, cell-based.
For data set [18], the system named is PMN. As to the kind of experiment: Immunomodulatory activity in Homo sapiens (human) PMN cells assessed as increase in reactive oxygen species formation at 0.001 to 0.0075 ug/ml at 40 min after luminal addition by chemiluminescence assay. It is filed as functional, cell-based.
Data set [19] is described as follows: Cytotoxicity against Homo sapiens (human) PMN cells assessed as cell viability at 0.1 ug/ml by trypan blue dye exclusion test (reference value: 83.94 +/-5.05%). It is filed as cell-based. The settings on record: read-out: Activity.
Data set [20] deals with PMN. As to the kind of experiment: Immunomodulatory activity in Homo sapiens (human) PMN cells assessed as increase in reactive oxygen species formation at 0 min after luminal addition by chemiluminescence assay. The data set is classed as functional, cell-based.
Data set [21] can be described thus: Cytotoxicity against Homo sapiens (human) PMN cells assessed as cell viability at 0.01 ug/ml by trypan blue dye exclusion test (reference value: 83.94 +/-5.05%). The data set is classed as cell-based. The conditions noted are these: read-out: Activity.
Data set [22] can be described thus: Cytotoxicity against Homo sapiens (human) PMN cells assessed as cell viability at 1 ug/ml by trypan blue dye exclusion test (reference value: 83.94 +/-5.05%). It is filed as cell-based. The conditions noted are these: read-out: Activity.
Data set [23] is described as follows: Cytotoxicity against Homo sapiens (human) PMN cells assessed as cell viability at 0.5 ug/ml by trypan blue dye exclusion test (reference value: 83.94 +/-5.05%). The data set is classed as cell-based. The conditions noted are these: read-out: Activity.

Regarding `CCCCCCCCCCCCCC(=O)O[C@@H]1[C@@H](C)[C@@]2(O)[C@@H](C=C(CO)C[C@]3(O)C(=O)C(C)=C[C@@H]23)[C@@H]2C(C)(C)[C@]12OC(C)=O`, the result with PMN [1], with PMN [2], in the data set with PMN [3] and in the data set on PMN [4] was Active.
Take `C[C@H]1CC[C@@]2(OC1)O[C@H]1C[C@H]3[C@@H]4CC[C@@H]5C[C@@H](O[C@@H]6O[C@H](CO[C@@H]7O[C@@H](C)[C@H](O)[C@@H](O)[C@H]7O)[C@@H](O[C@@H]7OC[C@@H](O)[C@H](O)[C@H]7O)[C@H](O)[C@H]6O[C@@H]6O[C@H](CO)[C@@H](O)[C@H](O)[C@H]6O)CC[C@]5(C)[C@H]4CC[C@]3(C)[C@H]1[C@@H]2C` [SHATAVAROSIDE B]: in data set [5], the viability at 0.001 ug/ml worked out at 94.2%. Further, the Activity in [6] stood at 26.33%; in data set [11], 35%; in data set [12] it was 36.83%; in [16] it was 28.17%. Also, the result in the data set on PMN [7], with PMN [8], in the data set with PMN [9], with PMN [14] and with PMN [15] was Active. Moreover, the viability at 0.005 ug/ml in data set [10] came out at 92.8%. Also, in data set [13], the viability at 0.0075 ug/ml is 91%.
`C[C@H]1CC[C@@]2(OC1)O[C@H]1C[C@H]3[C@@H]4CC[C@@H]5C[C@@H](O[C@@H]6O[C@H](CO[C@@H]7O[C@@H](C)[C@H](O)[C@@H](O)[C@H]7O)[C@@H](O)[C@H](O)[C@H]6O[C@@H]6OC[C@H](O)[C@H](O)[C@H]6O)CC[C@]5(C)[C@H]4CC[C@]3(C)[C@H]1[C@@H]2C` [SHATAVAROSIDE A]: the viability at 0.001 ug/ml in data set [5] was 100%. For the same compound, the Activity in [6] is 23.5%; in the data set with PMN [17], “Dose-dependent effect”; in data set [11], 35%; in the data set on PMN [20], “Dose-dependent effect”; in data set [12], 32%; in [16] it was 29.33%. Besides, the outcome in the data set with PMN [8], with PMN [18] and with PMN [14] was Active. Further, in data set [10], the viability at 0.005 ug/ml came out at 100%. In addition, in data set [19], the viability at 0.1 ug/ml stood at 71.7%. The viability at 0.0075 ug/ml in data set [13] turned out to be 100%. Further, the viability at 0.01 ug/ml in data set [21] was found to be 72.3%. For the same compound, the viability at 1 ug/ml in [22] is 76.2%. The viability at 0.5 ug/ml in data set [23] is 71.2%.

(Values after ChEMBL document CHEMBL3044851, “Immunomodulatory active steroidal saponins from Asparagus racemosus” (Med Chem Res, 2013).)
